The test concerns the target T1, Muscarinic acetylcholine receptor M5 (Homo sapiens, UniProt P08912).
T1 sequence (P08912 whole entry): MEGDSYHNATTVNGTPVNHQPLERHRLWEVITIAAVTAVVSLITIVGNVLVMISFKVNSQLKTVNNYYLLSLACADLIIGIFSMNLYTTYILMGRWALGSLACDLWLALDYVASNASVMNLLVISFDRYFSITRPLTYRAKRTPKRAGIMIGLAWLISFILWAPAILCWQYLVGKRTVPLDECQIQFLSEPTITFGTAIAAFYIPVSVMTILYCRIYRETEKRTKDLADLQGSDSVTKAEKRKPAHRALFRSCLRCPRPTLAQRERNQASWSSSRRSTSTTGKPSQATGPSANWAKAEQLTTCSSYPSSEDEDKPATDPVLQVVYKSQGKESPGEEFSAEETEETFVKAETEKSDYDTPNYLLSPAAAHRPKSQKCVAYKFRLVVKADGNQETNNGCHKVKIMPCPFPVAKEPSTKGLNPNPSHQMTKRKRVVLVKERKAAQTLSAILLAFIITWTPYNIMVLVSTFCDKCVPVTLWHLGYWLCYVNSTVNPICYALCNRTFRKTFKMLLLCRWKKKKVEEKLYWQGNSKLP
Put plainly: compound effect on ACh competition at M5, biochemical, [3H]N-methylscopolamine, acetylcholine (AID 2194).

Results on 1 compound are retold here after BindingDB's records for doi:10.7270/Q2CR5RSX (Vanderbilt Screening Center For Gpcrs, Ion Channels and …, 2009).

pEC50: −log10 of the molar value.

By pEC50 is commonly meant the negative decadic logarithm of the EC50, by convention in mol/L. Read a low pEC50 as a large EC50. `COc1ccc(CN2C(=O)C(=O)c3cc(OC(F)(F)F)ccc32)cc1` [VU0238429] showed a negative-log EC50 (pEC50) of 6.68.
